# Tests used:
# [1] = target: T1, 5HT1AR-GFP-1D4 fusion protein (Homo sapiens, UniProt P08908); experiment: Saturation radioligand binding to transgenic tadpole membranes expressing 5HT1AR-GFP-1D4
# T1 construct: expressed in transfected cells; host or cells: transgenic Xenopus laevis tadpoles (rod cells; homogenized membranes), transgene pXOP-5HTR-GFP-1D4
# Protocol: (§1) Radioligand binding assay were performed using transgenic tadpoles (stage 48 or older) or CHO cells expressing 5HT1A receptors homogenized in binding buffer (50 mM Tris-HCl, pH 7.4, 2 mM MgCl2, 1 mM EDTA and proteinase inhibitor cocktail). The binding assay was performed in 96-well plate with [methyl-^3H]-MPPE as a radioligand. For saturation binding analyses, the membranes (20 μg/well) were incubated with 0.05% saponin in a final volume of 50 μl at room temperature for 10 min, and then incubated with 50 μl of [methyl-^3H]-MPPE (0-50 nM) for another 90 min. Nonspecific binding was determined in the presence of 10 μM serotonin. Assays were terminated by rapid filtration through GF/C filter plate with 4 times washes with washing buffer (20 mM Trics-HCl, pH 7.4). The radioactivity was measured by a TopCount (PerkinElmer). Assays were performed in duplicate.
# (§2) Binding assays were performed to confirm that the 5HT1A receptor was expressed as a functional 5HT1AR-GPF-1D4 fusion protein in rod cell ROS of Xenopus tadpoles. Binding affinity was determined by measuring the binding affinity of [methyl-^3H]-MPPF, a radiolabeled selective ligand to the 5HT1A receptor, to the expressed fusion protein. Because the 5HT1A receptor expressed in ROS disk membranes is oriented with the extracellular side facing the interior of these disks and shielded from the solution, the detergent saponin was used to open up pores in these disk membranes and allow access to the ligands. Saponin at a concentration of 0.05% or more could effectively increase specific binding of [methyl-^3H]-MPPE to 5HT1AR transgenic tadpole membranes, but not to control tadpole membranes. […] Based on these observations, 0.05% saponin was included in all ligand binding assays.
# (§3) Saturation binding assays were also performed to measure the binding affinity and compare it to 5HT1A receptor expressed in standard mammalian CHO cells. […] The low nanomolar affinity and extent of specific binding further corroborates that the 5HT1A receptor is properly folded in transgenic tadpoles. […]
# 5HT1A receptor [2] = target: T2, 5HT1A receptor (Homo sapiens, UniProt P08908); experiment: Saturation radioligand binding to membranes from CHO cells expressing the 5HT1A receptor; settings: membrane samples from CHO cells expressing the 5HT1A receptor, read-out: binding affinity KD
# T2 construct: expressed in transfected cells; host or cells: CHO cells (transient expression)
# T2 sequence (P08908 1-422): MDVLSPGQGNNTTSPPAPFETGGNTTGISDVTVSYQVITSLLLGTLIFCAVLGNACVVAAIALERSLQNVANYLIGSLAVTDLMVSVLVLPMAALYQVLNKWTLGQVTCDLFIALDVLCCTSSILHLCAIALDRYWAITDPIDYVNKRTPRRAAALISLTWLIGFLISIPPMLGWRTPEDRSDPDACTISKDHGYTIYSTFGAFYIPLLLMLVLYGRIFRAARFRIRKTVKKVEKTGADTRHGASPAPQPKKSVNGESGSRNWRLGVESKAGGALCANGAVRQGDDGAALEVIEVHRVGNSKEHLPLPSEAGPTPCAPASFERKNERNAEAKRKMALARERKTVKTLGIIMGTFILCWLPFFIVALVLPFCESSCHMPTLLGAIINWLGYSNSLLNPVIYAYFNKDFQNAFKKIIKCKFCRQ
# Protocol: as §1
# Saturation binding assays were also performed to measure the binding affinity and compare it to 5HT1A receptor expressed in standard mammalian CHO cells. […] The low nanomolar affinity and extent of specific binding further corroborates that the 5HT1A receptor is properly folded in transgenic tadpoles. […] For example, the effect on binding affinity may be due to different ligand kon or koff kinetic parameters, or different partition coefficients to the different lipids present in these membranes.
# [3] = tested on: 5HT1AR-GFP-1D4 fusion protein; experiment: Saturation radioligand binding to transgenic tadpole membranes expressing 5HT1AR-GFP-1D4; parameters: species or system human; settings: tadpole KD versus CHO KD
# Protocol: as §1, §2, §3
# [4] = target: T3, rhodopsin-transducin interaction (Xenopus laevis, UniProt P29403); experiment: Hydroxylamine inactivation of rhodopsin-mediated basal [35S]GTPγS binding in tadpole ROS membranes; type: biochemical; settings: 10 mM hydroxylamine, room temperature
# T3 construct: from tissue; host or cells: Xenopus laevis tadpole (retina/ROS) membranes
# T3 sequence (P29403 1-354): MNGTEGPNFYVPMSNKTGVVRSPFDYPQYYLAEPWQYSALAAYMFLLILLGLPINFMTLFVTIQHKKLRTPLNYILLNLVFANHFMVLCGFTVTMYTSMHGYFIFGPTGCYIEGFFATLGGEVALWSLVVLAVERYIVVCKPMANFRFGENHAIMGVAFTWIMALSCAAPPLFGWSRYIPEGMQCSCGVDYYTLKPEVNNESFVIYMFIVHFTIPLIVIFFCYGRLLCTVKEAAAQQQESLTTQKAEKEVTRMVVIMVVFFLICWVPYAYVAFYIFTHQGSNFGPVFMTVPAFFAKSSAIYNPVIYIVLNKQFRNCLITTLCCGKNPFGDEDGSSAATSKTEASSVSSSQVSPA
# Protocol: (§4) A receptor binding assay was performed to determine retention of functional receptor using [^35S]GTPγS labeled receptor ligand. Transgenic tadpoles (stage 48 or older) or CHO cells expressing 5HT1A receptors were homogenized in binding buffer (20 mM HEPES, pH 7.4, 10 mM MgCl2, 1 mM EDTA, 100 mM NaCl). The binding assay was performed in 96-well Scintiplate (PerkinElmer). To reduce [^35S]-GTPγS binding to rhodopsin-activated transducin in retina membrane, the membrane from tadpoles was preincubated with 10 mM hydroxylamine in binding buffer at room temperature for 60 min. The membranes (25 μg/well) were incubated with indicated ligands for 30 min in a total volume of 150 μl binding buffer containing 10 μM GDP, 0.5% BSA, 1 mM DTT), then 50 μl of […] [^35S]-GTPγS was added to each well to make a final concentration of 200 pM. The binding assays were carried out at room temperature for 60 min under gentle shaking. Final concentration of hydroxylamine in binding assay should be no more than 1 mM, Nonspecific binding was determined in the presence of 10 μM unlabelled GTPγS. Assays were terminated by centrifugation at 4000 g for 15 min and removal of supernatant. The radioactivity was measured by a TopCounter (PerkinElmer). Assays were performed in triplicate. […]
# CHO membranes = experiment: Hydroxylamine effect on [35S]GTPγS binding to CHO membranes; type: biochemical; settings: 10 mM hydroxylamine
# Protocol: as §4
# 5HT1A receptor [5] = target: T4, 5HT1A receptor (Homo sapiens, UniProt P08908); experiment: [35S]GTPγS binding to transgenic tadpole membranes expressing 5HT1A; type: biochemical
# T4 construct: expressed in transfected cells; host or cells: transgenic Xenopus laevis tadpoles (rod cells; homogenized membranes), transgene pXOP-5HTR-GFP-1D4
# Protocol: as §4
# T4 sequence (P08908 with tags, fused parts or gaps): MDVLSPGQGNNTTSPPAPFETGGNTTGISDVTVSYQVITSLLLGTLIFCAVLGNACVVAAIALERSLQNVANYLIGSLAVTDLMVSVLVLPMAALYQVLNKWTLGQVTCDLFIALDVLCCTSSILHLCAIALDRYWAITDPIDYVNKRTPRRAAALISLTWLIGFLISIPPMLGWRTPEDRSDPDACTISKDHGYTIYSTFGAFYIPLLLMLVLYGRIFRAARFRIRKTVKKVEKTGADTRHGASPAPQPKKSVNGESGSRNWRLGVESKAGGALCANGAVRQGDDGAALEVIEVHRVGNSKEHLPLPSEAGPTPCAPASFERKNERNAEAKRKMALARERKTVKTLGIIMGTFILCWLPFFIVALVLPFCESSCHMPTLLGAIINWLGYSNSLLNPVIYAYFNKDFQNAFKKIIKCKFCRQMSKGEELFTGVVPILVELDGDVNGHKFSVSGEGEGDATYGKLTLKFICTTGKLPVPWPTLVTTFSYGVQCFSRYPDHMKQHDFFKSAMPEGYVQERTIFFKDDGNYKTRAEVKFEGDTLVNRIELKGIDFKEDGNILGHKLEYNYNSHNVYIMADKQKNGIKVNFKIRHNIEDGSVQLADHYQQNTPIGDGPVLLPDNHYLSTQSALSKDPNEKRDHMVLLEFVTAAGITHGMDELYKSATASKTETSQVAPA
# 5HT1A receptor [6] = target: T2, 5HT1A receptor; experiment: [35S]GTPγS binding to CHO membranes transiently expressing 5HT1A; type: biochemical; settings: CHO cells expressing 5HT1A
# Protocol: as §4
# [7] = target: transducin in ROS membrane (Xenopus laevis); experiment: cell-based or functional assay
# [8] = target: endogenous G proteins in retina rod cells; experiment: cell-based or functional assay
# T1 sequence (P08908 with tags, fused parts or gaps): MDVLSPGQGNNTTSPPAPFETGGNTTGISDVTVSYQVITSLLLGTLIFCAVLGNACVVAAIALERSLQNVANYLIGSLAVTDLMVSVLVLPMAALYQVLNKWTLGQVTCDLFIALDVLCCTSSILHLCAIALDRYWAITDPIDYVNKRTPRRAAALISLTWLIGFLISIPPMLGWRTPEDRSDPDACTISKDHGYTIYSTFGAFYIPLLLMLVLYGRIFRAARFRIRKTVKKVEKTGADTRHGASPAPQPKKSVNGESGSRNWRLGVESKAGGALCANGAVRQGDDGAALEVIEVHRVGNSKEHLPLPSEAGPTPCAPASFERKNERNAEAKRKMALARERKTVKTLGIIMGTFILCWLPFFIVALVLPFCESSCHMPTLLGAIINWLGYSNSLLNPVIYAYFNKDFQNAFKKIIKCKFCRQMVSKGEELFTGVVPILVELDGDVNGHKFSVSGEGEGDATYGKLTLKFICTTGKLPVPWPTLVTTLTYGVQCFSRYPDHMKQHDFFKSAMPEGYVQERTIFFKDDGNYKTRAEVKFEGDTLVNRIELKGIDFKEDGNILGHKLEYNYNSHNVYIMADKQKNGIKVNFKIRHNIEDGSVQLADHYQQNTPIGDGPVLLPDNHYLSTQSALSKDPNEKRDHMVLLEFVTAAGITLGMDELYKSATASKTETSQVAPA
compound,measurement,setting,value
COc1ccccc1N1CCN(CCN(C(=O)c2ccc(F)cc2)c2ccccn2)CC1 [[methyl-^3H]-MPPF],Kd,"[1]; transgenic Xenopus tadpole membranes expressing 5HT1AR-GFP-1D4, 0.05% saponin, saturation binding, read-out: binding affinity KD",6.7 nM
same,Kd,5HT1A receptor [2],0.35 ± 0.1 nM
[3H]C([3H])([3H])Oc1ccccc1N1CCN(CCN(C(=O)c2ccc(F)cc2)c2ccccn2)CC1 [[methyl-^3H]-MPPF],specific binding to transgenic 5HT1A tadpole membranes,"[1]; FIG. 14, 0.05% saponin, nonspecific binding with 10 μM serotonin",dose-dependent manner
same,difference in dissociation constants KD between transgenic tadpoles and CHO cells,[3],about 17 fold
NO [hydroxylamine],reduction of basal [35S]GTPγS binding,[4],~50%
same,effect on [35S]GTPγS binding,CHO membranes,without significant effect
"NCCc1c[nH]c2ccc(O)cc12 [serotonin, 5-hydroxytryptamine]",stimulation of [35S]GTPγS binding,5HT1A receptor [5]; tadpole membranes pretreated with 10 mM hydroxylamine,about 50%
same,effect on [35S]GTPγS binding,5HT1A receptor [6],specifically stimulated
O=C(CCCN1CCC2(CC1)C(=O)NCN2c1ccccc1)c1ccc(F)cc1 [spiperone],effect on [35S]GTPγS binding,5HT1A receptor [5]; transgenic tadpole membranes,significantly block
same,effect on [35S]GTPγS binding,5HT1A receptor [6],significantly block
"Xenopus rhodopsin (endogenous, in tadpole eye extracts) (from UniProt P29403 1-354) (receptor)",decrease in basal [^35S]GTPγS binding to tadpole membranes after treatment with 10 mM hydroxylamine,[7],50%
h5HT1AR-GFP-1D4 fusion protein (from UniProt P08908 1-422) (receptor),"[^35S]GTPγS binding to transgenic tadpole membranes, stimulated by the agonist serotonin",[8],50%

# — patent US20050091702A1, “Expression of polypeptides in rod outer segment membranes” (priority 2001, published 2005)
